This is an account of results in patent US20260035365A1, “1H-PYRROLO[3,2-B]PYRIDINE DERIVATIVES AS IRREVERSIBLE INHIBITORS OF MUTANT EGFR FOR THE TREATMENT OF CANCER” (Bayer Aktiengesellschaft, priority 2022, published 2026).

In general, IC50 refers to the midpoint of a concentration-inhibition curve. A higher IC50 goes with weaker potency in that assay.

Experiment [1] relates to BA/F3 (insSVD) cells. The experiment in a line: Ba/F3 cell survival assay (Cell Titer-Glo), EGFR-insSVD. Type of experiment: cell-based. The conditions noted are these: Mus musculus, BaF3, 48 h, without IL-3, with EGF. In outline:
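Viability read by CellTiter-Glo luminescence after 48 h compound exposure at 37° C, 4000 cells/well. Retrovirally transduced, puromycin-selected Ba/F3 lines carrying EGFR-insSVD ± T790M grew IL-3-free with 10 ng/mL EGF for 2 days beforehand; compound delivered by 100 nL pin.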
(Cellular ATP, detected with luciferase, serves as a proxy for viable cell number.)

The test system of experiment [2] is BA/F3 (EGFR D770_N771 insSVD T790M) cells. Briefly: Ba/F3 cell survival assay (Cell Titer-Glo), EGFR-insSVD T790M. The class given is cell-based. The conditions noted are these: Ba/F3 EGFR-D770-N771ins_SVD; 48 h, without IL-3, with EGF. On the procedure:
293T cells from ATCC were transfected with pBABEpuro expression constructs for WT EGFR or EGFR-insSVD, or EGFR-insSVD T790M, and pCL-Eco packaging vector using Fugene-6 transfection reagent from Promega. Plates were incubated at 37° C. for 48 h. Retrovirus was harvested by filtering the media supernatant through a 0.45 μm filter.
Ba/F3 cells purchased from DSMZ were grown in RPMI+10% FBS+10 ng/mL IL-3 and infected with filtered retroviral supernatant at a 1:2 dilution. Polybrene was added to a concentration of 8 μg/mL, plates were spun for 90 min, and incubated for 16 h at 37° C. 2 μg/mL puromycin was added to the infected cells 24 h after infection and cells were continually grown in the presence of puromycin and 10 ng/mL IL-3. Following stably expressing Ba/F3 cell lines were generated: Ba/F3-EGFR-WT, Ba/F3-EGFR-insSVD, Ba/F3-EGFR-insSVD T790M, (Ba/F3-vector-control).
For cell survival assays, Ba/F3 cells were grown to a density of 1-2 million cells per mL, spun down and resuspended in media without IL-3, and replated at a concentration of 200,000-500,000 cells per mL. The cells ectopically expressing WT EGFR, EGFR-insSVD, or EGFR-insSVD T790M were plated with 10 ng/mL Millipore Culture grade EGF. The cells ectopically expressing pBABEpuro empty vector were plated with 10 ng/mL IL-3.
2 days later, cells were plated in 50 μL in a 384 well plate at a concentration of 4000 cells per well for cells assayed in the absence of IL-3 and 2000 cells per well for cells assayed in the presence of IL-3. 100 nL of compound was added to each well using a 100 nL pin head, and plates were incubated at 37° C. for 48 h.
Cell viability was measured by adding 20 μL of Cell Titer-Glo Luminescent Cell Viability Reagent diluted 1:3 in PBS. Plates were sealed with Perkin Elmer Top-Seal, inverted several times to mix, and immediately centrifuged at 1000 rpm for 2 min. Plates were incubated in low light conditions for 8-10 min and luminescence was measured.

Experiment [3] deals with mutEGFR (D770_N771insSVD) (Homo sapiens, UniProt P00533, INS767SVD). The experiment in a line: Exon20-mutant-EGFR (D770_N771insSVD) TR-FRET kinase assay. The class given is biochemical. The conditions noted are these: 2 mM ATP, 15 min preincubation. The method in brief: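 GST-fused human EGFR fragment R669-A1210 carrying the SVD insertion, Sf9-expressed, typically 15 pg/μl, was preincubated with compound for 15 min at 22° C in pH 7.0 Hepes/MgCl2 buffer. Phosphorylation was read by HTRF (665/620 nm ratio), normalised to no-inhibitor and no-enzyme controls.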
Chain of mutEGFR (D770_N771insSVD) (P00533 with tags, fused parts or gaps INS767SVD limits assumed): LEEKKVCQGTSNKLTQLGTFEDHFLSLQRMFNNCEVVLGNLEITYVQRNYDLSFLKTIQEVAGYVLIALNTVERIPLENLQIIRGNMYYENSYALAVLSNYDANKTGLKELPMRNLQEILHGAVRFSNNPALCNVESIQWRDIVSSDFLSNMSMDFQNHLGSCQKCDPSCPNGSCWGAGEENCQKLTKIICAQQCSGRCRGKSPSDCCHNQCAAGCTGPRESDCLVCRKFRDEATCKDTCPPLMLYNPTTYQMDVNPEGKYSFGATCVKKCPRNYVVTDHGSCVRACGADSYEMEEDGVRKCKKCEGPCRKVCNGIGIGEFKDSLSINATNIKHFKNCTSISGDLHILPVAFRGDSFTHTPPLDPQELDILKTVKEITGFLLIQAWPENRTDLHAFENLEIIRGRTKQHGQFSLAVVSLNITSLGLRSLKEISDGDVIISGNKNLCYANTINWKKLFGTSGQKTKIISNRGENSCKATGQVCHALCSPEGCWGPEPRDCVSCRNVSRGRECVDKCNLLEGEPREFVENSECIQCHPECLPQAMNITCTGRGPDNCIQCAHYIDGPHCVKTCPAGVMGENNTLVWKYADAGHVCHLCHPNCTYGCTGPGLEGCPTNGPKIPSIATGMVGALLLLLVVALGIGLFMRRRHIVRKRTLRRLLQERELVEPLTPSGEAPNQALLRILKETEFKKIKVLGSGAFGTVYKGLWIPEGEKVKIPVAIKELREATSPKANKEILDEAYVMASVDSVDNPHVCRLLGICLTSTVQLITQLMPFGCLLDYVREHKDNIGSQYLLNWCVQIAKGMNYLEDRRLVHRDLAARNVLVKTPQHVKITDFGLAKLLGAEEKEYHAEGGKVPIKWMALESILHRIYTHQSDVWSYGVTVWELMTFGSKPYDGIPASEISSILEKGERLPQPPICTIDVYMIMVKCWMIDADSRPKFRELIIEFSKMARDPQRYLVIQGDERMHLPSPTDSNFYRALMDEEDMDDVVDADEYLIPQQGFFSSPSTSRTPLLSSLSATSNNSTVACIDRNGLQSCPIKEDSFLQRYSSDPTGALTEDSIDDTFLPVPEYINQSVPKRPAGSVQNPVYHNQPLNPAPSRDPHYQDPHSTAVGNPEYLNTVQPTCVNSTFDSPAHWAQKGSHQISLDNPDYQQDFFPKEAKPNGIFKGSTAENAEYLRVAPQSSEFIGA

For experiment [4], the target named is mutEGFR (D770_N771insNPG, T790). Briefly: mutEGFR (D770_N771insNPG, T790) kinase assay. The class given is biochemical, human.
Chain of mutEGFR (D770_N771insNPG, T790) (P00533 with tags, fused parts or gaps INS770NPG limits assumed): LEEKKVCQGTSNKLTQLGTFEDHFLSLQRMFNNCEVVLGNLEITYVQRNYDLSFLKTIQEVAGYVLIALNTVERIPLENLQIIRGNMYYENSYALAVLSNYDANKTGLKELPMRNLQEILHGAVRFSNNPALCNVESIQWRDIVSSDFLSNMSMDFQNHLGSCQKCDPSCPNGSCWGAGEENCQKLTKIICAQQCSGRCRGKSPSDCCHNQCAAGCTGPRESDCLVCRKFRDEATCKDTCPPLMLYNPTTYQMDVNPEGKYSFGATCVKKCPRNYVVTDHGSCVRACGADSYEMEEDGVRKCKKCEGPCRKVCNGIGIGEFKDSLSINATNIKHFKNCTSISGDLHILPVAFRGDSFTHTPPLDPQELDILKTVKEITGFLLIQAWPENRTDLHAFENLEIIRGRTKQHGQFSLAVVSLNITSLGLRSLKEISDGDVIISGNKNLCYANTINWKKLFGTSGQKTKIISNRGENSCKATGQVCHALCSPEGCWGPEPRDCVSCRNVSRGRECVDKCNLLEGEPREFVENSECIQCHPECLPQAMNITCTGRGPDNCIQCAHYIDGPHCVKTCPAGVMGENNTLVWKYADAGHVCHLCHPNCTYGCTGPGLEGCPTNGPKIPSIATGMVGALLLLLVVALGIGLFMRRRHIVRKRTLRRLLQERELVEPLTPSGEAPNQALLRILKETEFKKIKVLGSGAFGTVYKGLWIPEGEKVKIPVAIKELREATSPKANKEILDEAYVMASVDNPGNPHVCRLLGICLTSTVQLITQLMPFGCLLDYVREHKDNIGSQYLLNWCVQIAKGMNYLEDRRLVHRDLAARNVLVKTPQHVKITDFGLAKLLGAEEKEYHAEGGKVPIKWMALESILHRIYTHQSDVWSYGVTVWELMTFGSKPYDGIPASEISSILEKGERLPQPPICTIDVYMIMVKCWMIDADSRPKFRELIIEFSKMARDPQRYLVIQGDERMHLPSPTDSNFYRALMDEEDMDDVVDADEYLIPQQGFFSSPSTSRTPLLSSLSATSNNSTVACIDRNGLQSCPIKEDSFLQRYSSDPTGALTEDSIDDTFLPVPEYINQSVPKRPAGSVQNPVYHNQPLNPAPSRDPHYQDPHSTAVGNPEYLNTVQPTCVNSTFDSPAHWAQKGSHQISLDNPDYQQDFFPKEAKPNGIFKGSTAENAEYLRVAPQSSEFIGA

For `CN(C)C/C=C/C(=O)N1CCC[C@H]1COc1cnccc1-c1[nH]c2cccnc2c1-c1ccccc1` [Example 37, (2E)-4-(dimethylamino)-1-[(2S)-2-({[4-(3-phenyl-1H-pyrrolo[3,2-b]pyridin-2-yl)pyridin-3-yl]oxy}methyl)pyrrolidin-1-yl]but-2-en-1-one], the IC50 in experiment [1] turned out to be 229 nM; in experiment [2], 9130 nM; in experiment [3], 3.7 nM; in experiment [4] it was 11.2 nM.

For the molecule `C=CC(=O)NCCOc1cnccc1-c1[nH]c2cc(F)cnc2c1-c1ccccc1` [Example 6, N-(2-{[4-(6-fluoro-3-phenyl-1H-pyrrolo[3,2-b]pyridin-2-yl)pyridin-3-yl]oxy}ethyl)prop-2-enamide], the half-maximal inhibitory concentration (IC50) in experiment [1] turned out to be 7080 nM; in experiment [2], 9980 nM; in experiment [3], 3850 nM; in experiment [4], 5510 nM.

Turning to `C=CS(=O)(=O)N1CCC[C@H]1COc1cnccc1-c1[nH]c2cccnc2c1-c1ccccc1` [Example 36, 2-(3-{[(2S)-1-(ethenesulfonyl)pyrrolidin-2-yl]methoxy}pyridin-4-yl)-3-phenyl-1H-pyrrolo[3,2-b]pyridine], the IC50 in experiment [1] is 3.27 nM; in experiment [2], 44.6 nM; in experiment [3], 0.104 nM; in experiment [4], 0.308 nM.

As for `C=CC(=O)N(C)CCOc1cnccc1-c1[nH]c2cccnc2c1-c1ccc(Cl)c(C)c1` [Example 10, N-[2-({4-[3-(4-chloro-3-methylphenyl)-1H-pyrrolo[3,2-b]pyridin-2-yl]pyridin-3-yl}oxy)ethyl]-N-methylprop-2-enamide], the half-inhibitory concentration (IC50) in experiment [1] was 2930 nM; in experiment [2], 9980 nM; in experiment [3], 73.1 nM; in experiment [4], 90.6 nM.

For `C=CC(=O)N(C)CCOc1cnccc1-c1[nH]c2cccnc2c1-c1cccc(Cl)c1OC` [Example 21, N-[2-({4-[3-(3-chloro-2-methoxyphenyl)-1H-pyrrolo[3,2-b]pyridin-2-yl]pyridin-3-yl}oxy)ethyl]-N-methylprop-2-enamide], the IC50 in experiment [1] came to 4160 nM; in experiment [2], 9980 nM; in experiment [3] it was 290 nM; in experiment [4] it was 2260 nM.

As for `C=CC(=O)N(C)CCOc1cnccc1-c1[nH]c2cccnc2c1-c1cccc(F)c1` [Example 14, N-[2-({4-[3-(3-fluorophenyl)-1H-pyrrolo[3,2-b]pyridin-2-yl]pyridin-3-yl}oxy)ethyl]-N-methylprop-2-enamide], the half-maximal inhibitory concentration (IC50) in experiment [1] worked out at 833 nM; in experiment [2], 9980 nM; in experiment [3] it was 16.4 nM; in experiment [4], 46.3 nM.

In the case of `C=CC(=O)N(C)CCOc1cnccc1-c1[nH]c2cccnc2c1-c1ccc(F)c(C)c1` [Example 12, N-[2-({4-[3-(4-fluoro-3-methylphenyl)-1H-pyrrolo[3,2-b]pyridin-2-yl]pyridin-3-yl}oxy)ethyl]-N-methylprop-2-enamide], the IC50 in experiment [1] was 538 nM; in experiment [2] it was 9100 nM; in experiment [3], 8.68 nM; in experiment [4] it was 14.2 nM.

As for `C=CC(=O)N(C)CCOc1cnccc1-c1[nH]c2cccnc2c1-c1ccc(F)c(Cl)c1` [Example 24, N-[2-({4-[3-(3-chloro-4-fluorophenyl)-1H-pyrrolo[3,2-b]pyridin-2-yl]pyridin-3-yl}oxy)ethyl]-N-methylprop-2-enamide], the IC50 in experiment [1] is 726 nM; in experiment [2], 8320 nM; in experiment [3], 11.9 nM; in experiment [4], 20.9 nM.

Regarding `CC#CC(=O)N(C)CCOc1cnccc1-c1[nH]c2cccnc2c1-c1ccccc1` [Example 28, N-methyl-N-(2-{[4-(3-phenyl-1H-pyrrolo[3,2-b]pyridin-2-yl)pyridin-3-yl]oxy}ethyl)but-2-ynamide], the IC50 is 9980 nM in experiment [1], 9980 nM in experiment [2], 6500 nM in experiment [3] and more than 20000 nM in experiment [4].

As for `C=CC(=O)N(C)CCOc1cnccc1-c1[nH]c2cccnc2c1-c1cccc(Cl)c1` [Example 22, N-[2-({4-[3-(3-chlorophenyl)-1H-pyrrolo[3,2-b]pyridin-2-yl]pyridin-3-yl}oxy)ethyl]-N-methylprop-2-enamide], the half-inhibitory concentration (IC50) in experiment [1] was found to be 262 nM; in experiment [2], 7640 nM; in experiment [3], 6.8 nM; in experiment [4], 12.2 nM.

Take `C=CC(=O)N1CCC[C@H]1COc1cnccc1-c1[nH]c2cccnc2c1-c1cc(Cl)ccc1F` [Example 42, 1-{(2S)-2-[({4-[3-(5-chloro-2-fluorophenyl)-1H-pyrrolo[3,2-b]pyridin-2-yl]pyridin-3-yl}oxy)methyl]pyrrolidin-1-yl}prop-2-en-1-one]: the IC50 worked out at 44.7 nM in experiment [1], 3640 nM in experiment [2], 1.11 nM in experiment [3] and 2.84 nM in experiment [4].

`C=CC(=O)N1CCC[C@@H]1COc1cnccc1-c1[nH]c2cccnc2c1-c1ccccc1` [Example 35, 1-[(2R)-2-({[4-(3-phenyl-1H-pyrrolo[3,2-b]pyridin-2-yl)pyridin-3-yl]oxy}methyl)pyrrolidin-1-yl]prop-2-en-1-one]: the 50% inhibitory concentration (IC50) is 1400 nM in experiment [1], 9980 nM in experiment [2], 53.6 nM in experiment [3] and 349 nM in experiment [4].

Take `C=CS(=O)(=O)N1CCC[C@H]1COc1cnccc1-c1[nH]c2cccnc2c1-c1cccc(Cl)c1` [Example 40, 3-(3-chlorophenyl)-2-(3-{[(2S)-1-(ethenesulfonyl)pyrrolidin-2-yl]methoxy}pyridin-4-yl)-1H-pyrrolo[3,2-b]pyridine]: the IC50 in experiment [1] is 8.54 nM; in experiment [2] it was 67.9 nM; in experiment [3], 0.193 nM; in experiment [4], 0.29 nM.

As to `C=CC(=O)N(C)CCOc1cnccc1-c1[nH]c2cccnc2c1-c1ccc(Cl)c(CC)c1` [Example 20, N-[2-({4-[3-(4-chloro-3-ethylphenyl)-1H-pyrrolo[3,2-b]pyridin-2-yl]pyridin-3-yl}oxy)ethyl]-N-methylprop-2-enamide], the IC50 in experiment [1] was determined as 4650 nM; in experiment [2], 8990 nM; in experiment [3], 365 nM; in experiment [4], 779 nM.

As to `C#CC(=O)N(C)CCOc1cnccc1-c1[nH]c2cccnc2c1-c1ccccc1` [Example 27, N-methyl-N-(2-{[4-(3-phenyl-1H-pyrrolo[3,2-b]pyridin-2-yl)pyridin-3-yl]oxy}ethyl)prop-2-ynamide], the IC50 in experiment [1] amounted to 532 nM; in experiment [2] it was 8410 nM; in experiment [3], 19.7 nM; in experiment [4] it was 69.8 nM.

On to `C=CS(=O)(=O)N(C)CCOc1cnccc1-c1[nH]c2cccnc2c1-c1ccc2cc[nH]c2c1` [Example 30, N-[2-({4-[3-(1H-indol-6-yl)-1H-pyrrolo[3,2-b]pyridin-2-yl]pyridin-3-yl}oxy)ethyl]-N-methylethenesulfonamide], for which the IC50 was found to be 62.2 nM in experiment [1], 831 nM in experiment [2], 0.513 nM in experiment [3] and 1.82 nM in experiment [4].

Consider `C=CS(=O)(=O)N1C[C@@H](C)C[C@H]1COc1cnccc1-c1[nH]c2cccnc2c1-c1ccccc1` [Example 111, 2-(3-{[(2S,4S)-1-(ethenesulfonyl)-4-methylpyrrolidin-2-yl]methoxy}pyridin-4-yl)-3-phenyl-1H-pyrrolo[3,2-b]pyridine], for which the concentration for half-maximal inhibition (IC50) in experiment [1] was 10.9 nM; in experiment [2] it was 77.7 nM; in experiment [3], 0.135 nM; in experiment [4] it was 0.33 nM.

Take `C=CC(=O)N(C)CCCOc1cnccc1-c1[nH]c2cccnc2c1-c1ccccc1` [Example 3, N-methyl-N-(3-{[4-(3-phenyl-1H-pyrrolo[3,2-b]pyridin-2-yl)pyridin-3-yl]oxy}propyl)prop-2-enamide]: the IC50 worked out at 9980 nM in experiment [1], 9980 nM in experiment [2], 2840 nM in experiment [3] and 3410 nM in experiment [4].
